Patent publication US6780848B2, “Use of GPE to protect glial cells or non-dopaminergic cells from death from neural injury or disease” (NeuronZ, Ltd., priority 1993, dated 2004)

Experiments:
[1] = test system: hypoxic-ischemic injury, 21 day old Wistar rats; details: rat, in vivo, ip
Description: The objective of this study was to compare the effects of treatment with GPE to that of a vehicle given 2 hours after an hypoxic-ischemic injury. The dose range of 2 to 200 μg was chosen to span a range of systemic doses that are greater than that required centrally (see experiment 3).
Unilateral hypoxic-ischemic injury was induced in 21 day old, 45±5 g Wistar rats. The rats underwent unilateral carotid ligation under light halothane anaesthesia.
Following one hour recovery they were placed in an incubator at 34 deg C. 85±5% humidity for one hour before the injury. They were subjected to 1 min inhalation hypoxia (FiO2 8.0%) and then returned to room temperature (22 deg C.) and normoxia. […]
Surviving and dead neurons were discriminated using the thionin/acid fuchsin staining technique (Guan et al J Cereb Blood Flow Metab. 13:609-616 (1993). The results, in which the height of a point is given by the ratio as a percentage of live neurones in the CA1-2 region on the right side to the number on the left side are shown in FIG. 5. Column A is vehicle, column B is 2 μg of GPE, column C is 20 μg of GPE, and column D is 200 μg of GPE. In this figure, the P value (0.031) was calculated by a method using one way ANOVA comparing many groups after Arcsin transformation.

[2] = test system: hypoxic-ischemic injury to one cerebral hemisphere, adult Wistar rats; experiment: Experiment 1: IGF-1 and/or MK801 2 hours after unilateral hypoxic-ischemic injury, histology at 120 hours; format: in vivo, rat; details: treatment 2 hours after hypoxia, IGF-1 50 μg intraventricular, MK801 1 mg, controls 65%
Description: One carotid artery was ligated and the animal was subjected two hours later to a defined period of inhalational hypoxia. The degree, length of hypoxia, ambient temperature and humidity were defined to standardise the degree of damage. They were sacrificed five days later for histological analysis using stains (acid-fuchsin) specific for necrotic neurons.
Adult Wistar rats (68 280-320 g) were prepared under 3% halothane/O2 anaesthesia. The right side carotid artery was ligated. A guide cannula was placed on the dura 8.2 mm anterior from bregma and 1.4 mm from midline on the right. The rats were allowed to recover from anaesthesia for 1 hour and were then placed in an incubator with humidity 85±5% and temperature 34±0.5C. for 1 hour before hypoxia. Oxygen concentration was reduced and maintained at 6±0.2 02% hypoxia for 10 minutes. […] Fifty micrograms of IGF-1 or vehicle alone (0.1% BSA in 0.15M PBS (pH 7.3)) were given via intra-ventricular (IVC) infusion. […] The intraventricular injections of 50 μg IGF-1 or vehicle alone were made into the right lateral ventricle at 1 μl/minute under 1.5%-2% halothane anaesthetic. […] The presence of cortical infarction, defined as a region of tissue death or parenchymal pan-necrosis due to death of glia as well as neurons, was determined via light microscopy by an assessor who was blinded to the experimental groupings.

[3] = test system: ischemic brain injury, late gestation fetal sheep; experiment: Experiment 2: IGF-1 into lateral ventricle 2 hours after 30 minutes of brain ischemia in fetal sheep; format: in vivo
Source text: The objective of this study was to compare the effects of treatment either with IGF-1 (see FIG. 2) and previously published work with the NMDA antagonist MK810 after an ischemic brain injury on postischernic seizures and neuronal losses in fetal sheep. (Tan et al Ann Neurol 32:677-682 (1992)).
The methods were those of an earlier study (Tan et al Ann Neurol 32:677-682 (1992)). Briefly, late gestation fetal sheep were chronically instrumented to record EEG, nuchal activity and blood pressure, and were then returned to the uterus. Cortical EEG activity, nuchal activity and blood pressure were recorded throughout he experiment and the fetal brain subjected to 30 minutes of ischemia. Two hours later they were treated by an infusion of either 1 μg IGF-1 (n=6) or vehicle (artificial CSF) (n=6) into the lateral ventricle. Five days later the brains were fixed and assessed for neuronal loss as described previously (Tan et al Ann Neurol 32:677-682 (1992)).
In all cases the vehicle is the left-hand column and the effects of 1 μg of IGF-1 is on the right.

[4] = test system: ischemic brain injury, late gestation fetal sheep; details: ischemic model in fetal sheep; Tan et al Ann Neurol 32:677-682 (1992); cited from earlier work

Row | Compound | passage of the blood-brain barrier [1] | incidence of cortical infarction [2] [%] | suppression of postischemic seizure activity ([3]; 1 μg IGF-1 2 h after ischemia) | neuronal rescue (neuronal loss scores) ([3]; 1 μg IGF-1 into lateral ventricle 2 h after 30 minutes ischemia, assessed five days later) | suppression of cortical electroencephalographic activity [4]
1 | NCC(=O)N1CCC[C@H]1C(=O)N[C@@H](CCC(=O)O)C(=O)O [GPE, gly-pro-glu] | can cross the blood-brain barrier |  |  |  | 
2 | insulin-like growth factor 1 [IGF-1] |  | 33 | did not suppress the postischemic seizure activity | rescued neurons | did not suppress cortical electroencephalographic activity
3 | C[C@]12N[C@H](Cc3ccccc31)c1ccccc12 [MK801, reference compound] |  | 50 |  |  | 
